Measured values reported in patent US8409560B2, “Solid dispersion formulations and methods of use thereof” (Zalicus Pharmaceuticals Ltd., priority 2011, dated 2013).

Assays:
[1] = Modulated differential scanning calorimetry (MDSC), glass transition temperature Tg; format: physicochemical; conditions: compound 1 alone
Method: FIG. 6 is a graph showing modulated differential scanning calorimetry measurements at ambient relative humidity for solid dispersion formulations having 20% (w/w) loading of compound 1. Glass transition temperature Tg is shown for formulations of carboxymethylethyl cellulose (CMEC), hydroxypropylmethyl cellulose acetate succinate M grade (HPMCAS-M), cellulose acetate phthalate (CAP), and polyvinyl acetate phthalate (PVAP).
Various solid dispersion formulations were tested using modulated differential scanning calorimetry (MDSC). MDSC measurements provide glass transition temperature Tg values, which can be used to understand the molecular mobility of a drug within the dispersion. […] Data for Eudragit® L 100 are not shown, but Tg is likely greater than 150° C. due to polymer degradation above this temperature. All recorded Tg values were at least twice as high as compound 1 alone (Tg=41.6° C.). Lower Tg values could indicate potential stability issues over long periods of time or at an increased temperature or pressure. Table 3 provides Tg values for CAP (formulation 1), HPMCAS-M (formulation 2), and PVAP.

[2] = Dissolution of solid dispersions, gastric-to-FaSSIF media transition at 13 minutes; format: physicochemical; conditions: unformulated; pH 1.0-to-6.5
Method: FIGS. 1A-1H are graphs showing the dissolution rate in gastric media for solid dispersion formulations having 20% (w/w) loading of compound 1 and a gastric-to-FaSSIF (pH 1.0-to-6.5) media transition at 13 minutes. […]
Various formulations were tested to reduce precipitation. As shown in FIGS. 1A-1H, solubility was measured for the following formulations: carboxymethylethyl cellulose (CMEC, FIG. 1A), cellulose acetate phthalate (CAP, FIG. 1B), hydroxypropylmethyl cellulose acetate succinate M grade (HPMCAS-M, FIG. 1C), polyvinyl acetate phthalate (PVAP, FIG. 1D), methacrylic acid-methyl methacrylate copolymer (Eudragit® L 100, FIG. 1E), polyethylene glycol-polyvinylcaprolactam-polyvinylacetate copolymer (Soluplus®, FIG. 1F), hydroxypropylmethyl cellulose phthalate (HPMCP-H55, FIG. 1G), and polyvinylpyrrolidone vinylacetate copolymer (PVP-VA, FIG. 1H). […]
Further tests were conducted with different % loading of compound 1. Dissolution rates were measured for formulations have 35% (w/w) loading (FIGS. 2A-2C) and 50% (w/w) loading (FIGS. 3A-3D). CAP, HPMCAS-M, Eudragit® L 100, and PVAP were further analyzed for these tests. […]

For `O=C(CC(c1ccccc1)c1ccccc1)N1CCN(C(c2ccccc2)c2ccccc2)CC1` [Compound 1, 1-(4-benzhydrylpiperazin-1-yl)-3,3-diphenylpropan-1-one], the Tg [1] was 41.6 °C and the “behaviour in FaSSIF media following exposure to gastric media” value [2] was “rapidly precipitated”.
